How the values were obtained:
HIV-1 RT pol = HIV-1 RT pol (Human immunodeficiency virus type 1 group M subtype B, UniProt P04585); test: RT polymerase assay; type: biochemical
HIV-1 IN (INST activity) = HIV-1 IN (INST activity) (Human immunodeficiency virus type 1 group M subtype B, UniProt P04585); test: biochemical

SMILES | IC50 (HIV-1 RT pol) [µM] | IC50 (HIV-1 IN (INST activity)) [µM]
Cc1ccc(C(=O)c2cc(=O)n(O)c(=O)[nH]2)cc1 [Compound 7a, 3-Hydroxy-6-(4-methylbenzoyl)pyrimidine-2,4(1H,3H)-dione] | > 10 | 
O=C(c1ccc(C(F)(F)F)cc1)c1cc(=O)n(O)c(=O)[nH]1 [Compound 7b, 3-Hydroxy-6-(4-(trifluoromethyl)benzoyl)pyrimidine-2,4(1H,3H)-dione] | > 10 | 
O=C(c1ccc(F)cc1)c1cc(=O)n(O)c(=O)[nH]1 [Compound 7c, 6-(4-Fluorobenzoyl)-3-hydroxypyrimidine-2,4(1H,3H)-dione] | > 10 | 
COC(=O)c1ccc(C(=O)c2cc(=O)n(O)c(=O)[nH]2)cc1 [Compound 7d, Methyl 4-(1-hydroxy-2,6-dioxo-1,2,3,6-tetrahydropyrimidine-4-carbonyl)benzoate] | > 10 | 
Cc1cc(C)cc(C(=O)c2cc(=O)n(O)c(=O)[nH]2)c1 [Compound 7e, 6-(3,5-Dimethylbenzoyl)-3-hydroxypyrimidine-2,4(1H,3H)-dione] | > 10 | 
Cc1ccc(-c2ccc(C(=O)c3cc(=O)n(O)c(=O)[nH]3)cc2)cc1 [Compound 8a, 3-Hydroxy-6-(4’-methyl-[1,1’-biphenyl]-4-carbonyl)pyrimidine-2,4(1H,3H)-dione] | > 10 | 
O=C(c1ccc(-c2ccc(C(F)(F)F)cc2)cc1)c1cc(=O)n(O)c(=O)[nH]1 [Compound 8b, 3-Hydroxy-6-(4’-(trifluoromethyl)-[1,1’-biphenyl]-4-carbonyl)pyrimidine-2,4(1H,3H)-dione] | > 10 | > 100
O=C(c1ccc(-c2ccc(F)cc2)cc1)c1cc(=O)n(O)c(=O)[nH]1 [Compound 8c, 6-(4’-Fluoro-[1,1’-biphenyl]-4-carbonyl)-3-hydroxypyrimidine-2,4(1H,3H)-dione] | > 10 | 
COC(=O)c1ccc(-c2ccc(C(=O)c3cc(=O)n(O)c(=O)[nH]3)cc2)cc1 [Compound 8d, Methyl 4’-(1-hydroxy-2,6-dioxo-1,2,3,6-tetrahydropyrimidine-4-carbonyl)-[1,1’-biphenyl]-4-carboxylate] | > 10 | 
Cc1cc(C)cc(-c2ccc(C(=O)c3cc(=O)n(O)c(=O)[nH]3)cc2)c1 [Compound 8e, 6-(3’,5’-Dimethyl-[1,1’-biphenyl]-4-carbonyl)-3-hydroxypyrimidine-2,4(1H,3H)-dione] | > 10 | 
O=C(c1ccc(-c2ccccc2)cc1)c1cc(=O)n(O)c(=O)[nH]1 [Compound 8f, 6-([1,1’-Biphenyl]-4-carbonyl)-3-hydroxypyrimidine-2,4(1H,3H)-dione] | > 10 | 
O=C(c1cccc(-c2ccccc2)c1)c1cc(=O)n(O)c(=O)[nH]1 [Compound 8g, 6-([1,1’-Biphenyl]-3-carbonyl)-3-hydroxypyrimidine-2,4(1H,3H)-dione] | > 10 | 
COc1ccc(-c2ccc(C(=O)c3cc(=O)n(O)c(=O)[nH]3)cc2)cc1 [Compound 8h, 3-Hydroxy-6-(4’-methoxy-[1,1’-biphenyl]-4-carbonyl)pyrimidine-2,4(1H,3H)-dione] |  | > 100
O=C(c1ccc(-c2ccc(Cl)c(F)c2)cc1)c1cc(=O)n(O)c(=O)[nH]1 [Compound 8l, 6-(4’-Chloro-3’-fluoro-[1,1’-biphenyl]-4-carbonyl)-3-hydroxypyrimidine-2,4(1H,3H)-dione] | > 10 | 
CCOCn1c(C(=O)c2ccc(-c3ccccc3)cc2)cc(=O)n(O)c1=O [Compound 16f, 6-([1,1’-Biphenyl]-4-carbonyl)-1-(ethoxymethyl)-3-hydroxypyrimidine-2,4(1H,3H)-dione] | > 10 | > 100
CCOCn1c(C(=O)c2cccc(-c3ccccc3)c2)cc(=O)n(O)c1=O [Compound 16g, 6-([1,1’-Biphenyl]-3-carbonyl)-1-(ethoxymethyl)-3-hydroxypyrimidine-2,4(1H,3H)-dione] | > 10 | > 100
CCOCn1c(C(C#N)c2cc(C)cc(C)c2)cc(=O)n(O)c1=O (centres unmarked) [Compound 17e, 2-(3,5-Dimethylphenyl)-2-(3-(ethoxymethyl)-1-hydroxy-2,6-dioxo-1,2,3,6-tetrahydropyrimidin-4-yl)acetonitrile] | > 10 | > 100
CCOCn1c(C(C#N)c2ccc(-c3ccccc3)cc2)cc(=O)n(O)c1=O (centres unmarked) [Compound 18f, 2-([1,1’-Biphenyl]-4-yl)-2-(3-(ethoxymethyl)-1-hydroxy-2,6-dioxo-1,2,3,6-tetrahydropyrimidin-4-yl)acetonitrile] | > 10 | > 100
